Drawing on patent US10662189B2, “PDE4 inhibitor” (SHIJIAZHUANG SAGACITY NEW DRUG DEVELOPMENT CO., LTD., priority 2016, dated 2020), this text covers IC50 for 61 molecules.

This experiment deals with Recombinant human PDE4B (Homo sapiens (Human), UniProt Q07343). Nature of the experiment: Inhibitory activity against PDE 4B in vitro (fluorescence polarization, Transcreener AMP2/GMP2). In kind it is biochemical. To be noted: 1 μM cAMP. As to the method: Inhibitory activity of the compounds against PDE 4B
Chain of Recombinant human PDE4B (Q07343 305-736 limits assumed): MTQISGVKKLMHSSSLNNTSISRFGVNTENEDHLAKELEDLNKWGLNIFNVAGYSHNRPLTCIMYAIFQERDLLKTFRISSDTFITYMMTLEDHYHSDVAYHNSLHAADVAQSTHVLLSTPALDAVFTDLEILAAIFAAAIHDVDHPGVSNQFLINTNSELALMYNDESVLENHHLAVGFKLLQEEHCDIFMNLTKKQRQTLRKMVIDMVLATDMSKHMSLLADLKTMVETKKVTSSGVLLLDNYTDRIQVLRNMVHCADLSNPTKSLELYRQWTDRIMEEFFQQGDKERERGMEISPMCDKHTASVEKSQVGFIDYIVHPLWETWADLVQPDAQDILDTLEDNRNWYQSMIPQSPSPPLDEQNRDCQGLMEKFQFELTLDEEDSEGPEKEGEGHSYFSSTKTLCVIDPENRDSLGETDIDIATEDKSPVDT
The enzyme activity was indicated by measuring the AMP/GMP expression and tracing AMP/GMP antibody binding based on fluorescence polarization in the biological assay.
10 mM Tris-HCl (pH 7.5), 5 mM MgCl2, 0.01% Brij 35, 1 mM DTT and 1% DMSO.
Recombinant human PDE4B (Gen accession number: NM_002600; amino acid 305 end) was expressed by baculovirus in Sf9 insect cells using an N-terminal GST tag. MW=78 kDa.
Transcreener® AMP2/GMP2 antibody and AMP2/GMP2 AlexaFluor633 tracer
i) Recombinant human PDE4B and the enzyme substrate (1 μM cAMP) were dissolved in the newly-prepared buffer solution, respectively.
ii) The PDE4B buffer solution defined as above was transferred into the reaction wells.
iii) The compound which was dissolved in 100% DMSO was added to the reaction wells of the PDE4B buffer solution by ultrasonic oscillator (echo 550; nanoliter range) and incubated at room temperature for 10 minutes.
iv) The enzymatic buffer solution was then added to the reaction wells defined as above to initiate the reaction.
v) The reaction was incubated at room temperature for 1 hour.
vi) The reaction was terminated by adding detecting mixture (Transcreener® AMP2/GMP2 antibody and AMP2/GMP2 AlexaFluor633 tracer) and incubated for 90 minutes with slowly mixing. The measurement range of fluorescence polarization is Ex/Em=620/688.
The fluorescence polarization signal was converted into nM according to the AMP/GMP standard curve and the percent enzyme activity relative to DMSO calculated by Excel. GraphPad Prism was used to plot the curves (Drawing Medicine Icon).
For orientation: Polarisation of emitted light reports the rotation of a fluorescent probe.

A word on the IC50: it is the concentration needed to halve the response being measured. As for `COc1ccc(C(CS(C)(=O)=O)n2c(=O)[nH]c3c(-c4ccccc4F)ccnc32)cc1OC` (single isomer, unassigned) [WX072], the IC50 came out at 24.6 nM.
Take `CCOc1cc([C@@H](CS(C)(=O)=O)n2c(=O)[nH]c3cc(Cl)cnc32)ccc1OC` [WX001]: the IC50 was found to be 9.48 nM.
The figure for `CCOc1cc([C@@H](CS(C)(=O)=O)n2c(=O)[nH]c3cc(C(F)(F)F)cnc32)ccc1OC` [WX002] is 5.66 nM; for `CCOc1cc([C@@H](CS(C)(=O)=O)n2c(=O)[nH]c3cc(F)cnc32)ccc1OC` [WX003] it is 10.6 nM; for `CCOc1cc([C@@H](CS(C)(=O)=O)n2c(=O)[nH]c3cc(Br)cnc32)ccc1OC` [WX004] it is 7.09 nM.
With `CCOc1cc([C@@H](CS(C)(=O)=O)n2c(=O)[nH]c3cc(C4CC4)cnc32)ccc1OC` [WX005] the figure was 5.03 nM; with `CCOc1cc([C@@H](CS(C)(=O)=O)n2c(=O)[nH]c3cc(Cc4ccccc4F)cnc32)ccc1OC` [WX006], 1.8 nM; with `CCOc1cc([C@@H](CS(C)(=O)=O)n2c(=O)[nH]c3cc(C=C(C)C)cnc32)ccc1OC` [WX007], 2.81 nM.
In the case of `CCOc1cc([C@@H](CS(C)(=O)=O)n2c(=O)[nH]c3cc(CC(C)C)cnc32)ccc1OC` [WX008], the IC50 came out at 4.89 nM.
Consider `CCOc1cc([C@@H](CS(C)(=O)=O)n2c(=O)[nH]c3cc(-c4ccccc4F)cnc32)ccc1OC` [WX009], for which the IC50 worked out at 0.86 nM.
Consider `CCOc1cc([C@@H](CS(C)(=O)=O)n2c(=O)[nH]c3cc(-c4ccccc4)cnc32)ccc1OC` [WX010], for which the IC50 was 2.6 nM.
Regarding `CCOc1cc([C@@H](CS(C)(=O)=O)n2c(=O)[nH]c3cc(-c4cccc(F)c4)cnc32)ccc1OC` [WX011], the IC50 was found to be 3.4 nM.
The figure for `CCOc1cc([C@@H](CS(C)(=O)=O)n2c(=O)[nH]c3cc(-c4ccc(F)cc4)cnc32)ccc1OC` [WX012] is 3.9 nM; for `CCOc1cc([C@@H](CS(C)(=O)=O)n2c(=O)[nH]c3cc(-c4cccc(F)c4F)cnc32)ccc1OC` [WX013] it is 0.994 nM.
As for `CCOc1cc([C@@H](CS(C)(=O)=O)n2c(=O)[nH]c3cc(-c4ccccc4C)cnc32)ccc1OC` [WX014], the IC50 is under 0.5 nM.
With `CCOc1cc([C@@H](CS(C)(=O)=O)n2c(=O)[nH]c3cc(-c4ccccc4C(C)C)cnc32)ccc1OC` [WX015] the figure was 1.04 nM.
For the molecule `CCOc1cc([C@@H](CS(C)(=O)=O)n2c(=O)[nH]c3cc(-c4ccccc4Cl)cnc32)ccc1OC` [WX016], the IC50 is under 0.5 nM.
As to `CCOc1cc([C@@H](CS(C)(=O)=O)n2c(=O)[nH]c3cc(-c4ccccc4OC)cnc32)ccc1OC` [WX017], the IC50 was found to be 0.641 nM.
The figure for `CCOc1cc([C@@H](CS(C)(=O)=O)n2c(=O)[nH]c3cc(-c4ccccc4C(F)(F)F)cnc32)ccc1OC` [WX018] is 0.391 nM; for `CCOc1cc([C@@H](CS(C)(=O)=O)n2c(=O)[nH]c3cc(-c4cn[nH]c4)cnc32)ccc1OC` [WX019] it is 3.38 nM; for `CCOc1cc([C@@H](CS(C)(=O)=O)n2c(=O)[nH]c3cc(C)cnc32)ccc1OC` [WX020] it is 65.8 nM.
With `CCOc1cc([C@@H](CS(C)(=O)=O)n2c(=O)[nH]c3cc(-n4ccccc4=O)cnc32)ccc1OC` [WX021] the figure was 26.1 nM; with `CCOc1cc([C@@H](CS(C)(=O)=O)n2c(=O)[nH]c3cc(C#N)cnc32)ccc1OC` [WX022], 26.5 nM; with `CCOc1cc([C@@H](CS(C)(=O)=O)n2c(=O)[nH]c3cc(CO)cnc32)ccc1OC` [WX023], 68.1 nM.
Turning to `CCOc1cc([C@@H](CS(C)(=O)=O)n2c(=O)n(Cc3ccccc3F)c3cc(Cc4ccccc4F)cnc32)ccc1OC` [WX024], the IC50 is 2.7 nM.
The figure for `CCOc1cc([C@@H](CS(C)(=O)=O)n2c(=O)[nH]c3cc(-c4cccnc4)cnc32)ccc1OC` [WX025] is 9.53 nM.
With `CCOc1cc([C@@H](CS(C)(=O)=O)n2c(=O)[nH]c3cc(-c4ncccn4)cnc32)ccc1OC` [WX026] the figure was 4.51 nM.
With `CCOc1cc([C@@H](CS(C)(=O)=O)n2c(=O)[nH]c3cc(-c4cncnc4)cnc32)ccc1OC` [WX027], the IC50 worked out at 19.1 nM.
The figure for `CCOc1cc([C@@H](CS(C)(=O)=O)n2c(=O)[nH]c3cc(-c4nccc(C)n4)cnc32)ccc1OC` [WX028] is 9.7 nM; for `CCOc1cc([C@@H](CS(C)(=O)=O)n2c(=O)[nH]c3cc(-c4cncnc4C)cnc32)ccc1OC` [WX029] it is 14.8 nM; for `CCOc1cc([C@@H](CS(C)(=O)=O)n2c(=O)[nH]c3cc(-c4ccccc4CC)cnc32)ccc1OC` [WX030] it is 0.515 nM.
The figure for `CCOc1cc([C@@H](CS(C)(=O)=O)n2c(=O)[nH]c3cc(-c4ccccc4OCC)cnc32)ccc1OC` [WX031] is 0.861 nM.
`CCOc1cc([C@@H](CS(C)(=O)=O)n2c(=O)[nH]c3cc(-c4ccccc4C#N)cnc32)ccc1OC` [WX032]: the IC50 amounted to 0.234 nM.
With `CCOc1cc([C@@H](CS(C)(=O)=O)n2c(=O)[nH]c3cc(-c4c(F)cccc4F)cnc32)ccc1OC` [WX033] the figure was 0.671 nM.
With `CCOc1cc([C@@H](CS(C)(=O)=O)n2c(=O)[nH]c3cc(-c4c(C)ncnc4C)cnc32)ccc1OC` [WX034] the figure was 5.18 nM.
The figure for `CCOc1cc([C@@H](CS(C)(=O)=O)n2c(=O)[nH]c3cc(-c4ccncc4)cnc32)ccc1OC` [WX035] is 15.5 nM; for `CCOc1cc([C@@H](CS(C)(=O)=O)n2c(=O)[nH]c3cc(-c4cscn4)cnc32)ccc1OC` [WX036] it is 6.27 nM; for `CCOc1cc([C@@H](CS(C)(=O)=O)n2c(=O)[nH]c3cc(-c4ncccc4F)cnc32)ccc1OC` [WX037] it is 10.2 nM.
Regarding `CCOc1cc([C@@H](CS(C)(=O)=O)n2c(=O)[nH]c3cc(-c4nccnc4C)cnc32)ccc1OC` [WX038], the half-inhibitory concentration (IC50) came to 14.5 nM.
On to `CCOc1cc([C@@H](CS(C)(=O)=O)n2c(=O)[nH]c3cc(-c4nnccc4C)cnc32)ccc1OC` [WX039], for which the IC50 turned out to be 21.7 nM.
Regarding `CCOc1cc([C@@H](CS(C)(=O)=O)n2c(=O)[nH]c3cc(C4=CCN(C(=O)OC(C)(C)C)CC4)cnc32)ccc1OC` [WX040], the IC50 turned out to be 10.4 nM.
The figure for `CCOc1cc([C@@H](CS(C)(=O)=O)n2c(=O)n(C)c3cc(OC)cnc32)ccc1OC` [WX041] is 16.4 nM.
With `CCOc1cc([C@@H](CS(C)(=O)=O)n2c(=O)[nH]c3cc(Oc4ncccn4)cnc32)ccc1OC` [WX042] the figure was 5.42 nM; with `CCOc1cc([C@@H](CS(C)(=O)=O)n2c(=O)[nH]c3cc(Oc4ccccc4C(F)(F)F)cnc32)ccc1OC` [WX043], 2.53 nM; with `CCOc1cc([C@@H](CS(C)(=O)=O)n2c(=O)n(-c3ccccc3)c3cc(Br)cnc32)ccc1OC` [WX044], 26.6 nM.
As to `CCOc1cc([C@@H](CS(C)(=O)=O)n2c(=O)n(C3CC3)c3cc(Br)cnc32)ccc1OC` [WX045], the IC50 was 6.5 nM.
The figure for `CCOc1cc([C@@H](CS(C)(=O)=O)n2c(=O)n(C3CC3)c3cc(-c4ccccc4F)cnc32)ccc1OC` [WX046] is 7.79 nM.
As for `CCOc1cc([C@@H](CS(C)(=O)=O)n2c(=O)n(CC(F)F)c3cc(Cl)cnc32)ccc1OC` [WX047], the IC50 turned out to be 41.6 nM.
With `CCOc1cc([C@@H](CS(C)(=O)=O)n2c(=O)n(CC(F)(F)F)c3cc(Cl)cnc32)ccc1OC` [WX048] the figure was 19.8 nM.
With `CCOc1cc([C@@H](CS(C)(=O)=O)n2c(=O)n(CC(F)F)c3cc(F)cnc32)ccc1OC` [WX049] the figure was 90.7 nM; with `CCOc1cc([C@@H](CS(C)(=O)=O)n2c(=O)n(C)c3cc(Br)cnc32)ccc1OC` [WX050], 11 nM.
`CCOc1cc([C@@H](CS(C)(=O)=O)n2c(=O)n(CCOC)c3cc(Br)cnc32)ccc1OC` [WX051]: the IC50 came to 9.1 nM.
As to `CCOc1cc([C@@H](CS(C)(=O)=O)n2c(=O)n(CCS(C)(=O)=O)c3cc(Br)cnc32)ccc1OC` [WX052], the IC50 is 8.2 nM.
For the molecule `CCOc1cc([C@@H](CS(C)(=O)=O)n2c(=O)n(Cc3ccccc3F)c3cc(Br)cnc32)ccc1OC` [WX053], the IC50 came to 1.49 nM.
With `CCOc1cc([C@@H](CS(C)(=O)=O)n2c(=O)n(Cc3nccc(C)n3)c3cc(Br)cnc32)ccc1OC` [WX054] the figure was 6.9 nM; with `CCOc1cc([C@@H](CS(C)(=O)=O)n2c(=O)n(Cc3cncc(C)n3)c3cc(Br)cnc32)ccc1OC` [WX055], 6.99 nM.
The figure for `CCOC(=O)Cn1c(=O)n([C@H](CS(C)(=O)=O)c2ccc(OC)c(OCC)c2)c2ncc(Br)cc21` [WX056] is 3.4 nM; for `CCOc1cc([C@@H](CS(C)(=O)=O)n2c(=O)n(CC)c3cc(-c4ccccc4F)cnc32)ccc1OC` [WX058] it is 1.99 nM; for `CCOc1cc([C@@H](CS(C)(=O)=O)n2c(=O)n(CCO)c3cc(-c4ccccc4F)cnc32)ccc1OC` [WX059] it is 2.02 nM.
The figure for `CCOc1cc([C@@H](CS(C)(=O)=O)n2c(=O)n(C(C)C)c3cc(-c4ccccc4F)cnc32)ccc1OC` [WX060] is 3.48 nM.
With `CCOc1cc([C@@H](CS(C)(=O)=O)n2c(=O)n(CC#N)c3cc(-c4ccccc4F)cnc32)ccc1OC` [WX061], the IC50 is 0.989 nM.
